# According to patent publication US20120251551A1, “Substituted (Heteroarylmethyl)thiohydantoins” (BAYER PHARMA AKTIENGESELLSCHAFT, priority 2009, published 2012):
# Changes are numbered by the printed parent chain. Where two headings read alike, the source gives them in different places.
# Legend:
# [1] = biological target: T1, wild-type human androgen receptor (Homo sapiens, UniProt P10275); experiment: Cell-based transactivation assay for wild-type human androgen receptor (PC-3 cells, MMTV-luciferase reporter)
# T1 construct: expressed in transfected cells
# T1 sequence (P10275 1-920): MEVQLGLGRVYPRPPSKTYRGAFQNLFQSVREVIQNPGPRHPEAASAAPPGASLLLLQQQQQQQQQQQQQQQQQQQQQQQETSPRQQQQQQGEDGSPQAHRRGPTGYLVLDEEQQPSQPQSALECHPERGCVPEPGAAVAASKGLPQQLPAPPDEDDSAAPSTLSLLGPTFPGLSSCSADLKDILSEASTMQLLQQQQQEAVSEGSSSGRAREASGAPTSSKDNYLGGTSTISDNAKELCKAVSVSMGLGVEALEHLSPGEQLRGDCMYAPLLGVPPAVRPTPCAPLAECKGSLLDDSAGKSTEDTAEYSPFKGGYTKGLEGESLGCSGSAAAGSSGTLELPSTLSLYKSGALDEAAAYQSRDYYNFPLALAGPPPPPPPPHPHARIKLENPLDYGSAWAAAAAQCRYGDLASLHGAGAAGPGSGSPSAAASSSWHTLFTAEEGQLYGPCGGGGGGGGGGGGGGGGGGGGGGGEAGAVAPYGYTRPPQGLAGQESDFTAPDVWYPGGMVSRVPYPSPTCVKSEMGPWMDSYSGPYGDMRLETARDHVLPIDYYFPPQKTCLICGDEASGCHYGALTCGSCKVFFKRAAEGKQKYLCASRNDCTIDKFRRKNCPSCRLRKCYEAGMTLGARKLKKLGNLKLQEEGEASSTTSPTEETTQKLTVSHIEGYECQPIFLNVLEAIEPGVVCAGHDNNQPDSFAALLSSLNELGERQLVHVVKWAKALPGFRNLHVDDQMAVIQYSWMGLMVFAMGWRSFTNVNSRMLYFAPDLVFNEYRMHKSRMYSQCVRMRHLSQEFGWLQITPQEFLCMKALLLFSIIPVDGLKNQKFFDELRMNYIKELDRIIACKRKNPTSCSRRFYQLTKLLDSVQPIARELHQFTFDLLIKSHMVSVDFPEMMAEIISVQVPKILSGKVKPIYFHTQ
# Procedure: Cell-Based Transactivation Assay for Wild-Type Human Androgen Receptor
# PC-3 cells (Kaighn et al., Invest. Urol. 17:16-23, 1979) stably transfected with the human androgen receptor (Swiss-Prot Acc. No. P10275, Entry Version 159, Sequence Version 2) and a reporter plasmid based on pGL4.14 (#E6691, Promega Corporation, Madison, Wis., USA) containing the MMTV promoter (Cato et al., EMBO J. 6:363-8, 1987) were used. They were grown in 5% charcoal-stripped medium and seeded at a concentration of 1000 cells per well in a 384-well plate. For determination of antagonistic activity, the plate additionally contained the compound to be tested at a concentration range varying from 5.12×10^−12 to 1×10^−5 M. The assay was performed in presence of 1×10^−10 R1881 (also known as methyltrienolone). After overnight incubation at 37° C. in a 5% CO2 atmosphere, 15 μl of Steady Glo Lysis and Detection reagent (Steady Glo Luciferase assay system E2550 from Promega Corporation. Madison, Wis., USA) were added. IC50 was calculated for anti-androgenic activity as well as percentage inhibition in presence of 2 μM compound in comparison to non-stimulated luciferase signal. Agonistic activity was determined using the same concentration range of compound in the absence of R1881 by measuring Luciferase activity as above. EC50 was calculated for androgenic activity. Assay/read plates were used (Polystyrol; 384, NV-white cell culture plates; Perkin Elmer).
# [2] = biological target: T2, human androgen receptor W741L mutant (Homo sapiens, UniProt P10275, W742L); experiment: Cell-based transactivation assay for human androgen receptor mutant W741L
# T2 construct: expressed in transfected cells; host or cells: PC-3 cells, transient transfection with a pSG5-derived plasmid
# T2 sequence (P10275 1-920 W742L): T1 sequence (P10275 1-920) with W742L
# [3] = biological target: T3, human androgen receptor E709Y mutant (Homo sapiens, UniProt P10275, E710Y); experiment: Cell-based transactivation assay for human androgen receptor mutant E709Y
# T3 construct: expressed in transfected cells; host or cells: PC-3 cells, transient transfection with a pSG5-derived plasmid
# T3 sequence (P10275 1-920 E710Y): T1 sequence (P10275 1-920) with E710Y
# Procedure: Cell-Based Transactivation Assay for Human Androgen Receptor Mutant E709Y
# PC-3 cells (Kaighn et al., Invest. Urol. 17:16-23, 1979) were grown in 5% charcoal-stripped medium and seeded at a concentration of 10000 cells per well in a 96-well plate. They were transiently transfected with a pSG5-derived plasmid (#216201 from Stratagene, La Jolla, Calif., USA) coding for the human androgen receptor E709Y mutant (Georget et al., Molecular Endocrinology, 20(4): 724-734, 2006) and an MMTV-Luciferase reporter plasmid based on pGL4.14 14 (#E6691, Promega Corporation, Madison, Wis., USA). The compound to be tested was added at a concentration range varying from 1×10^−9 to 1×10^−6 M together with 1×10^−10 R1881. After 24 h incubation at 37° C. in a 5% CO2 atmosphere, 100 μl of Steady Glo Lysis and Detection reagent (Steady Glo Luciferase assay system E2550 from Promega Corporation. Madison, Wis., USA) were added. Antagonistic activity was determined by measuring Luciferase activity in a Victor 3 Luminometer (PerkinElmer, Waltham, Mass., USA) using the Steady Glo Luciferase Assay (E2550, Promega). IC50 values were calculated for anti-androgenic activity.
# LNCaP cells = experiment: Proliferation assay with LNCaP cells; format: cell-based; conditions: Homo sapiens, 168 h, R1881 (1×10^−10) stimulated growth, day 7, read-out: inhibition IC50 (LNCaP)
# Procedure: Proliferation Assay with LNCaP Cells
# LNCaP cells (Horoszewicz et al., in “Models for Prostate Cancer” (ed. G. P. Murphy), Alan R. Liss, New York 1981, p. 115-132; Horoszewicz et al., Cancer Res. 43:1809-1818, 1983) were seeded at 2000 cells/well in 96-well plates in RPMI (F1235, Biochrom AG, Berlin, Germany) without phenol red supplemented with 5% charcoal-stripped serum. After 3 days, the cells were treated with R1881) (1×10^−10) and compound (day 0). Cell number was determined by Alamar Blue (DAL1100, Invitrogen, Life Technologies, Lohne, Germany) staining (2.5 h) at day 0 and day 7. Fluorescence was determined in Victor3 (Excitation 530 nm; emission 590 nm). Stimulated growth was defined as the signal measured at day 7 for cells treated only with R1881. Basal level was defined as the signal measured at day 7 for cells grown without R1881.
# VCaP cells = experiment: Proliferation assay with VCaP cells; format: cell-based; conditions: Homo sapiens, 168 h, R1881 (1×10^−10) stimulated growth
# Procedure: Proliferation Assay with VCaP Cells
# VCaP cells ((Korenchuk et al., In Vivo 15: 163-168, 2001)) were seeded at 16 000 cells/well in 96-well plates in DMEM (F0445, Biochrom AG, Berlin, Germany) with phenol red supplemented with 10% charcoal-stripped serum. After 1 day, the cells were treated with R1881 (1×10^−10) and compound (day 0). Cell number was determined by Alamar Blue (DAL1100, Invitrogen, Life Technologies, Lohne, Germany) staining (2.5 h) at day 0 and day 7. Fluorescence was determined in Victor3 (Excitation 530 nm; emission 590 nm). Stimulated growth was defined as the signal measured at day 7 for cells treated only with R1881. Basal level was defined as the signal measured at day 7 for cells grown without R1881.
# [4] = day 7, read-out: Antiproliferative activity VCaP IC50
# [5] = day 7, read-out: inhibition IC50 (VCaP)
SMILES,EC50 [1],IC50 [2],IC50 [3],IC50 (LNCaP cells),IC50 (VCaP cells; [4]),IC50 (VCaP cells; [5])
"CC1(C)C(=O)N(c2ccc(C#N)c(C(F)(F)F)c2)C(=S)N1Cc1ccc(OCCN2CCOCC2)nc1 [Example 3, 4-[4,4-Dimethyl-3-({6-[2-(morpholin-4-yl)ethoxy]pyridin-3-yl}methyl)-5-oxo-2-thioxoimidazolidin-1-yl]-2-(trifluoromethyl)benzonitrile]",> 10 µM,118 nM,79.5 nM,127 nM,176 nM,
"CC1(C)C(=O)N(c2ccc(C#N)c(C(F)(F)F)c2)C(=S)N1Cc1ccc(OC2CCOCC2)nc1 [Example 5, 4-(4,4-Dimethyl-5-oxo-3-{[6-(tetrahydro-2H-pyran-4-yloxy)pyridin-3-yl]methyl}-2-thioxoimidazolidin-1-yl)-2-(trifluoromethyl)benzonitrile]",> 10 µM,49.7 nM,44.8 nM,200 nM,,
"CC1CN(c2ccc(CN3C(=S)N(c4ccc(C#N)c(C(F)(F)F)c4)C(=O)C3(C)C)cn2)CCO1 (stereo not drawn) [Example 7, 4-(4,4-Dimethyl-3-{[6-(2-methylmorpholin-4-yl)pyridin-3-yl]methyl}-5-oxo-2-thioxoimidazolidin-1-yl)-2-(trifluoromethyl)benzonitrile]",> 10 µM,49.1 nM,22.6 nM,118 nM,106 nM,106 nM
"COc1ccc(CN2C(=S)N(c3ccc(C#N)c(C(F)(F)F)c3)C(=O)C2(C)C)cn1 [Example 8, 4-{3-[(6-Methoxypyridin-3-yl)methyl]-4,4-dimethyl-5-oxo-2-thioxoimidazolidin-1-yl}-2-(trifluoromethyl)benzonitrile]",8.86 µM,49.2 nM,9.18 nM,120 nM,92.5 nM,92 nM
"Cc1nccn1-c1ccc(CN2C(=S)N(c3ccc(C#N)c(C(F)(F)F)c3)C(=O)C2(C)C)cn1 [Example 15, 4-(4,4-Dimethyl-3-{[6-(2-methyl-1H-imidazol-1-yl)pyridin-3-yl]methyl}-5-oxo-2-thioxoimidazolidin-1-yl)-2-(trifluoromethyl)benzonitrile]",> 10 µM,13.2 nM,29.9 nM,116 nM,253 nM,
"CC1(C)CC(=O)N(c2ccc(CN3C(=S)N(c4ccc(C#N)c(C(F)(F)F)c4)C(=O)C3(C)C)cn2)C1 [Example 16, 4-(3-{[6-(4,4-Dimethyl-2-oxopyrrolidin-1-yl)pyridin-3-yl]methyl}-4,4-dimethyl-5-oxo-2-thioxoimidazolidin-1-yl)-2-(trifluoromethyl)benzonitrile]",> 10 µM,78.5 nM,143 nM,121 nM,,
